Experimental data as given in US4598095A (priority 1982, dated 1986).
≈ marks a conversion by molar mass, not a printed value. Entries after “also recorded” stand apart in the source; their conditions may differ. Where a name gives a salt, the structure may show the parent alone.

Key:
[1] = system: influenza virus, Adachi strain of A2-type; assay: microbe, parasite or virus in culture; type: cell-based; conditions: for virucidal index: 50% toxicity concentration / 50% virucidal concentration; for EC50: 2 h, read-out: 50% Virucidal Concentration
[2] = system: influenza virus, Adachi strain of A2-type; assay: microbe, parasite or virus in culture; type: cell-based; conditions: for virus proliferation-inhibiting index: 50% toxicity concentration / 50% virus proliferation-inhibiting concentration, 2880 min; for IC50: 48 h, read-out: 50% Virus Proliferation-Inhibiting Concentration
[3] = in vitro; conditions: chicken, chorioallantoic membrane
[4] = system: rice blast fungus (Pyricularia oryzae); assay: whole plant or invertebrate; type: in vivo; conditions: 168 h, read-out: Protective Value
[5] = acute toxicity (LD50) by intraperitoneal administration to mice; conditions: mouse, in vivo, ip
Excerpt: In evaluating acute toxicity (LD50 value) of the compounds of this invention, compound number 4 and compound number 25 of Table 1, respectively, were selected and examined for their acute toxicities by intraperitoneal administration to mice.

[6] = system: rice blast fungus (Pyricularia oryzae); type: in vivo; conditions: low dosage; for Protective Value: 100 ppm; for controlling effect against rice blast: Table 4
[7] = system: Pyricularia oryzae; conditions: Bokin Bobai, Vol. 9, No. 12, pages 551 to 561 (1981); cited from earlier work
[8] = system: plant pathogenic fungi; conditions: foregoing literature; cited from earlier work

Row | SMILES | virus proliferation-inhibiting index [2] | IC50 [2] [µg/mL] | CC50 at 48 h [3] [µg/mL] | pest or weed control at 400 ppm [4] [%] | other results
1 | NC12CC3CC(CC(C3)C1)C2 [Am, Adamantaneamine Hydrochloride, reference compound] | 30.4 | 32.9 | 1000 |  | virucidal index [1]: 1.5; EC50 [1]: 649 µg/mL
2 | CSC(=N)NN=Cc1ccccc1 [Compound 1] |  |  |  | 90 | 
3 | N=C(NN=Cc1ccccc1)SCc1ccccc1 [Compound 2, Benzaldehyde-S-benzylisothiosemicarbazone Hydrochloride] |  |  |  | 85 | 
4 | CSC(=N)NN=Cc1ccccc1Cl [Compound 3] |  |  |  | 96 | 
5 | CSC(=N)NN=Cc1cccc(Cl)c1 [Compound 4] | > 54.0 | 18.5 (≈ 81.2 µM) | > 1000 | 100 | virucidal index [1]: 5.7; EC50 [1]: 175 µg/mL (≈ 768 µM); LD50 [5]: 200 mg/kg
6 | CN=C(NN=Cc1cccc(Cl)c1)SC [Compound 5, 3'-Chlorobenzaldehyde-S-methyl-4-N-methylisothiosemicarbazone Hydrochloride] |  |  |  | 93 | 
7 | CSC(=N)NN=Cc1ccc(Cl)cc1 [Compound 6, 4'-Chlorobenzaldehyde-S-methylisothiosemicarbazone Hydrochloride] |  |  |  | 100 | 
8 | CN=C(NN=Cc1ccc(Cl)cc1)SC [Compound 7] |  |  |  | 75 | 
9 | CSC(=N)NN=Cc1ccc(Cl)cc1Cl [Compound 8] | 35.7 | 19.8 (≈ 75.5 µM) | 706 (≈ 2690 µM) | 97 | virucidal index [1]: 15.2; EC50 [1]: 46.4 µg/mL (≈ 177 µM)
10 | CCCCSC(=N)NN=Cc1ccc(Cl)cc1Cl [Compound 9, 2',4'-Dichlorobenzaldehyde-S-butylisothiosemicarbazone Hydrochloride] | 5.5 | 115 | 632 | 100 | virucidal index [1]: 19.9; EC50 [1]: 31.6 µg/mL
11 | CN=C(NN=Cc1ccc(Cl)c(Cl)c1)SC [Compound 10] |  |  |  | 88 | Protective Value [6]: 67%; controlling effect against rice blast [6]: low protective values; MIC Value in Literature [7]: 12.5 µg/mL (≈ 45.3 µM)
12 | CSC(=N)NN=Cc1ccc(Cl)c(Cl)c1 [Compound 11, 3',4'-Dichlorobenzaldehyde-S-methylisothiosemicarbazone Hydrochloride] | 33.2 | 21.3 | 707 | 98 | virucidal index [1]: 15.2; EC50 [1]: 46.4 µg/mL
13 | CSC(=N)NN=Cc1c(Cl)cccc1Cl [Compound 12] |  |  |  | 100 | 
14 | CSC(=N)NN=Cc1cc(Cl)cc(Cl)c1 [Compound 13] | 14.0 | 50 (≈ 191 µM) | 700 (≈ 2670 µM) | 100 | 
15 | CSC(=N)NN=Cc1cc(Cl)cc(Cl)c1O [Compound 14] | > 66.7 | 15 (≈ 53.9 µM) | > 1000 | 98 | 
16 | CCCCSC(=N)NN=Cc1ccc(F)cc1 [Compound 15] |  |  |  | 93 | 
17 | CSC(=N)NN=Cc1cccc(Br)c1 [Compound 16] |  |  |  | 100 | 
18 | CSC(=N)NN=Cc1ccc(C)cc1 [Compound 17] |  |  |  | 100 | 
19 | CCOc1ccc(C=NNC(=N)SC)cc1 [Compound 18] |  |  |  | 100 | Protective Value [6]: 99%; controlling effect against rice blast [6]: very excellent controlling effects; effect against plant pathogenic fungi in vitro [8]: never been observed to have effects of inhibiting proliferation of any of the pathogenic fungi
20 | CCCCSC(=N)NN=Cc1ccc(OCC)cc1 [Compound 19] | > 25.2 | 39.7 (≈ 142 µM) | > 1000 | 100 | virucidal index [1]: 3.2; EC50 [1]: 316 µg/mL (≈ 1130 µM); Protective Value [6]: 93%; controlling effect against rice blast [6]: very excellent controlling effects; effect against plant pathogenic fungi in vitro [8]: never been observed to have effects of inhibiting proliferation of any of the pathogenic fungi
21 | CCCCOc1ccc(C=NNC(=N)SC)cc1 [Compound 20] |  |  |  | 99 | Protective Value [6]: 100%; controlling effect against rice blast [6]: very excellent controlling effects; effect against plant pathogenic fungi in vitro [8]: never been observed to have effects of inhibiting proliferation of any of the pathogenic fungi
22 | CSC(=N)NN=C(C)c1ccccc1 [Compound 21] | 12.6 | 12.5 (≈ 60.3 µM) | 158 (≈ 760 µM) | 100 | 
23 | CC(=NNC(=N)SCc1ccccc1)c1ccccc1 [Compound 22] |  |  |  | 90 | 
24 | CCCC(=NNC(=N)SC)c1ccccc1 [Compound 23] |  |  |  | 93 | 

Row | SMILES | virus proliferation-inhibiting index [2] | IC50 [2] [µg/mL] | CC50 at 48 h [3] [µg/mL] | pest or weed control at 400 ppm [4] [%] | other results
25 | CSC(=N)NN=C(C)c1cccc(Cl)c1 [Compound 24] | 28.3 | 25 (≈ 103 µM) | 708 (≈ 2930 µM) | 89 | virucidal index [1]: 3.3; EC50 [1]: 215 µg/mL (≈ 889 µM)
26 | CSC(=N)NN=C(C)c1ccc(Cl)cc1 [Compound 25] | 24.6 | 14.4 (≈ 59.6 µM) | 354 (≈ 1470 µM) | 100 | virucidal index [1]: 1.7; EC50 [1]: 215 µg/mL (≈ 889 µM); LD50 [5]: 150 mg/kg
27 | CCC(=NNC(=N)SC)c1ccc(Cl)cc1 [Compound 26] |  |  |  | 100 | 
28 | CCCC(=NNC(=N)SC)c1ccc(Cl)cc1 [Compound 27] |  |  |  | 100 | 
29 | CCCC(=NNC(=NC)SC)c1ccc(Cl)cc1 [Compound 28] | 12.6 | 63 (≈ 222 µM) | 794 (≈ 2800 µM) | 94 | 
30 | CSC(=N)NN=C(C)c1ccc(Cl)cc1Cl [Compound 29] | 7.7 | 23.2 (≈ 84 µM) | 180 (≈ 652 µM) | 90 | virucidal index [1]: 1.8; EC50 [1]: 100 µg/mL (≈ 362 µM)
31 | CSC(=N)NN=C(C)c1ccc(Cl)c(Cl)c1 [Compound 30] |  |  |  | 88 | Protective Value [6]: 66%; controlling effect against rice blast [6]: low protective values; MIC Value in Literature [7]: 12.5 µg/mL (≈ 45.3 µM)
32 | CSC(=N)NN=C(C)c1ccc(Cl)c(Cl)c1Cl [Compound 31] | 16.6 | 21.3 (≈ 68.6 µM) | 354 (≈ 1140 µM) | 89 | 
33 | CCCCSC(=N)NN=C(C)c1ccc(Cl)c(Cl)c1Cl [Compound 32] |  |  |  | 96 | 
34 | CSC(=N)NN=C(C)c1ccc(C)cc1 [Compound 33] | 20.0 | 50 (≈ 226 µM) | 1000 (≈ 4520 µM) | 97 | 
35 | CSC(=N)NN=C(C)c1ccc(O)cc1 [Compound 34] |  |  |  | 93 | 
36 | COc1ccc(C(C)=NNC(=N)SC)cc1 [Compound 35] | 7.0 | 14.2 (≈ 59.8 µM) | 99.4 (≈ 419 µM) | 100 | 
37 | CCCCSC(=N)NN=C(C)c1ccc(OC)cc1 [Compound 36] |  |  |  | 95 | 
38 | CCOc1ccc(C(C)=NNC(=N)SC)cc1 [Compound 37] | 7.1 | 12.5 (≈ 49.7 µM) | 88.8 (≈ 353 µM) | 89 | 
39 | CCCCCOc1ccc(C(C)=NNC(=N)SC)cc1 [Compound 38] | > 8.0 | 126 (≈ 429 µM) | > 1000 | 100 | effect against plant pathogenic fungi in vitro [8]: inactive against all of the plant pathogenic fungi
40 | CCCCCOc1ccc(C(C)=NNC(=N)SCCCC)cc1 [Compound 39] |  |  |  | 100 | 
41 | CCCCCCCCOc1ccc(C(C)=NNC(=N)SC)cc1 [Compound 40] |  |  |  | 85 | 
42 | CCCCCCCCCCOc1ccc(C(C)=NNC(=N)SC)cc1 [Compound 41] | < 5.0 | > 200 | 1000 (≈ 2750 µM) | 94 | virucidal index [1]: 6.9; EC50 [1]: 145 µg/mL (≈ 399 µM)
43 | CSC(=N)NN=C(C)C=Cc1ccc(Cl)cc1 [Compound 42] | 7.1 | 100 (≈ 373 µM) | 710 (≈ 2650 µM) | 88 | virucidal index [1]: 4.2; EC50 [1]: 170 µg/mL (≈ 635 µM)
44 | CCOc1ccc(C=CC(C)=NNC(=N)SC)cc1 [Compound 43] | 7.1 | 141 (≈ 508 µM) | > 1000 | 100 | virucidal index [1]: 3.2; EC50 [1]: 316 µg/mL (≈ 1140 µM); Protective Value [6]: 97%; controlling effect against rice blast [6]: very excellent controlling effects; effect against plant pathogenic fungi in vitro [8]: never been observed to have effects of inhibiting proliferation of any of the pathogenic fungi; also recorded: inactive against all of the plant pathogenic fungi
45 | CCCCOc1ccc(C=CC(C)=NNC(=N)SC)cc1 [Compound 44] |  |  |  | 100 | 
46 | CCCCCCOc1ccc(C=CC(C)=NNC(=N)SC)cc1 [Compound 45] |  |  |  | 96 | 
47 | CCCCCCCCCCCCOc1ccc(C=CC(C)=NNC(=N)SC)cc1 [Compound 46] | > 11.7 | 85.2 (≈ 204 µM) | > 1000 | 77 | virucidal index [1]: > 31.6; EC50 [1]: 31.6 µg/mL (≈ 75.7 µM)
48 | CCCCCCCCOc1ccc(C=CC(C)=NNC(=N)SC)cc1OC [Compound 47] |  |  |  | 96 | 
